The values below come from publication PMC7822816, “Halo-fluorescein for photodynamic bacteria inactivation in extremely acidic conditions” (Nature Communications, 2021).

“And” between values parts separate entries of the source, which are not always exact repeats. Identical values can stand only once.

Data set [1] is described as follows: Relative singlet oxygen quantum yield (1O2 phosphorescence, Rose Bengal standard). The format is physicochemical. The arrangement: key: relative to Rose Bengal standard (ΦΔ = 0.75). The conditions noted are these: for singlet oxygen quantum yield (ΦΔ): pH = 10 media, relative, RB as the standard; for Singlet oxygen yield (ΦΔ): mixed solvent of D2O and CH3CN (1:15) (Supplementary Table 4). How it is done: To permit the open-form structure of all fluorescein derivatives, all the measurements were carried out in pH = 10 media.
The singlet oxygen quantum yields (ΦΔ) of all fluorescein-based PSs were evaluated with Rose Bengal as the standard (ΦΔ = 0.75):1 ΦΔ=AsAbsorption/As(Emission)×ARB(Emission)/ARB(Absorption)×0.75 Here, the area of absorption (RB and PSs) was collected with an integrating sphere (λex = 510 nm), while the area of emission was obtained from the characterized 1270 nm ^1O2 phosphorescence emission. For collection of such emission, CH3CN and D2O mixed solvent (v (D2O): v (CH3CN) = 1:15, pH = 9.0, adjusted with 0.001 M NaOH) was used, since H2O can severely quench the singlet oxygen luminescence. For all the measurements, the concentrations of the PSs were set at 10 μM.
S6.3 Relative singlet oxygen quantum yield
The singlet O2 quantum yield of photosensitizers were measured by Fluolog-3 spectrofluorometer with an integration sphere (IS80, Labsphere) and NIR detector (Hamamatsu H-10330) in this work.
For better collection of the characterized singlet oxygen phosphorescence emission (1275 nm), CH3CN and D2O mixed solvent was used (H2O can severely quench the singlet oxygen luminescence). The 10 mM stock solutions in CH3CN and D2O mixed solvent (VCH3CN:VD2O = 15:1) were first prepared. The stock solutions were diluted to 10 μM, and the final volume was 2 mL. In addition, the CH3CN and D2O mixed solvent as blank was also prepared.
1. Turn on the instrument and the start software, the light source is xenon lamp.
2. From the experiment menu, selected spectra, emission. The 1O2 emission phosphorescence spectra are first measured.
3. The parameters setting are listed: a. Excitation wavelength: 510 nm

Data set [2] is described as follows: Photophysical characterization (absorption, fluorescence, phosphorescence, lifetime). The format is physicochemical. Conditions: for ΦFL: 5 μM in 0.5% (v/v) DMSO, diluted with 0.1 M NaOH; for λAbs / λPh / λem: 2% DMSO; for τfl: fluorescence lifetime, 5 μM in 0.5% DMSO, 0.1 M NaOH. As to the method:
Section S6. Photophysical Characterizations
S6.1 Absorption, fluorescence, and phosphorescence spectra
Fluorescein and its derivatives were dissolved in DMSO to obtain 1 mM stock solutions.
The stock solutions were diluted with deionized water to 10 μM.
Supplementary Figure 20. The absorption (black), fluorescence (blue), and phosphorescence (red, slit 25 nm) spectra of FL.
Supplementary Figure 21. The absorption (black), fluorescence (blue), and phosphorescence (red, slit 25 nm) spectra of DCF.
S6.2 Fluorescence lifetime
Fluorescence decay samples was recorded with Fluorolog-3 (Horiba). The solution of samples were prepared to be 5 μM in 0.5% (v/v) DMSO, and diluted with 0.1M NaOH.
S6.5 Photophysical properties of the halogenated-fluorescein derivatives
Supplementary Table 4. Photophysical Properties of Halogenated-fluorescein derivatives. […]
a Measured in 2% DMSO; b Measured in 2% DMSO citric acid -disodium hydrogen phosphate buffer; c Measured in a mixed solvent of D 2O and CH3CN (VD2O:
VCH3CN = 1: 15); d The solution of samples were prepared to be 5 μM in 0.5% (v/v) DMSO, and diluted with 0.1 M NaOH.

Data set [3] in a line: pH titration of halogenated fluorescein (pH0.5). The conditions noted are these: for lowering of pH0.5 compared with fluorescein: difference to fluorescein (6.09). The format is physicochemical. As to the method: The pH0.5 values (the pH value when the open form reduce to the half of the maximum) of various fluorescein derivatives were determined experimentally through pH titration (Supplementary Figs. 6–16).
The pH of the solutions were adjusted through varying the ratios of citric acid and Na2HPO4 (pH 2.2–8.0), and further acidity was adjusted with concentrated HCl or 1 M NaOH. The absorption and fluorescence spectra of the resultant solutions were then collected.
Section S5. pH-dependent Properties of the Halogenated Fluoresceins.
S5.1 pH titration of halogenated fluorescein
Fluorescein derivatives (Supplementary Table 1) were dissolved in DMSO to obtain 1 mM stock solutions and then diluted with citric acid-Na2HPO4 buffer (100 mM) to 10
μM. The pH of the solutions were adjusted through varying the ratios of citric acid and Na2HPO4 (pH 2.2-8.0), and further acidity was adjusted with concentrated HCl or 1 M
NaOH. The absorption and fluorescence spectra of the resultant solutions were then

For data set [4], the system named is L. plantarum. As to the kind of experiment: Photodynamic inhibition of L. plantarum (coating plate method). The class given is cell-based, Lactobacillus plantarum. The conditions noted are these: 0.5 μM photosensitizer, irradiated 10 min, pH 2.5; 620 nm red LED for Zn-tpp and PC.
Data set [5] concerns C. albicans. The experiment in a line: Fresh food preservation (infected tomato model). The arrangement: species or system Candida albicans. The conditions noted are these: 10 μM in pH 3.0 PBS, LED 35 mW/cm^2 10 min (620 nm Zn-tpp, 660 nm Ce 6). From the text:
Besides fruit juices, the potential of TIF for photo-assisted fresh food preservation was also investigated with tomato as the model (pH 3.0). […] Therefore, the food additive TIF is also promising for fresh food preservation.
Tomatoes were selected as the model for photo-assisted fresh food preservation. All the tomatoes were divided into six groups, and made a wound of ~7 cm^2 by hot water. […] Afterward, the tomatoes were stored at room temperature and then subjected to repeated irradiation at day 2. The total viable counts of bacteria on the infected tomatoes were measured in day 3.

Data set [6] relates to C. albicans infection of oral mucosa. Conditions: photosensitizer + light (510 nm TIF, 660 nm Ce 6 and Zn-tpp).
Text: The extremely acidic environment was constructed through changing the pH of the mucosa and diluting PSs in pH 3.0 PBS buffer. […] During the investigations, the infected ICR mice were divided into six groups (six mice per group): blank, light, TIF, TIF + light, Ce 6 + light, and Zn-tpp + light. For comparison and better visualization of the infection, a normal group (no infection) was also included.
To construct the oral mucosal infection model, cotton balls immersed in solutions containing 10^8 CFU/mL of C. albicans were placed in the mouth of mice for 75 min. At day 1 and day 3, 50 μL pH 3.0 PBS and PSs (20 μM, diluted by pH 3.0 PBS) were added to oral mucosa, and treated with different lasers (510 nm for TIF, 660 nm for Ce 6 and Zn-tpp, 50 mW/cm^2) for 10 min.
To investigate the therapy effect, photographs, colonies, weights, and pathology index of mice were taken every other day. After day 3, one mouse in each group was sacrificed, and the tissues of oral mucosa were harvested for hematoxylin and eosin (H&E) staining. The pathology index was evaluated based on the standard given in Supplementary Table 10.
In data set [7] the test system is MRSA. Conditions: dose 100 mg/L, 360 J/cm2; cited from earlier work.
The subject of data set [8] is E.coli. Conditions: dose 0.5 μM, 20 min; cited from earlier work.
Where [9] appears, read: 2% DMSO citric acid-disodium hydrogen phosphate buffer (Supplementary Table 4).
[10] abbreviates: pH value when the open form reduces to half of the maximum, pH titration, 10 μM, citric acid–Na2HPO4 buffer.

For `O=C(O)c1ccccc1-c1c2ccc(=O)c(I)c-2oc2c(I)c(O)ccc12` [DIF, Diiodo-fluorescein], the “singlet oxygen quantum yield (ΦΔ)” value in data set [1] was determined as 0.63. In data set [2], the kdec stood at 1e+11 s⁻¹, the knr is 9.99e+10 s⁻¹, the krad was 1e+08 s⁻¹ and the ΦFL is recorded as 0.001. In data set [2], the λAbs was found to be 527 nm, the λPh is recorded as 699 nm, the λem worked out at 549 nm and the τfl is listed as 0.01 ns. The compound further returned a pH0.5 in data set [3] (setting [9]) of 4.13. Besides, the pH0.5 in data set [3] (setting [10]) came to 4.13.

`O=C(O)c1c(Cl)c(Cl)c(Cl)c(Cl)c1-c1c2ccc(=O)cc-2oc2cc(O)ccc12` [TCF-2, Tetrachloro-fluorescein-2]: the “singlet oxygen quantum yield (ΦΔ)” value in data set [1] was 0.05. Further, in data set [2], the kdec is 2.05e+08 s⁻¹, the knr was 3e+07 s⁻¹, the krad was 1.75e+08 s⁻¹ and the ΦFL was 0.854. For the same compound, in data set [2], the λAbs was 511 nm, the λPh is reported as 637 nm, the λem was found to be 531 nm and the τfl was determined as 4.87 ns. The compound further had a pH0.5 in data set [3] (setting [9]) of 5.89. Besides, the “lowering of pH0.5 compared with fluorescein” value in data set [3] was determined as 0.16 units. For the same compound, the pH0.5 in data set [3] (setting [10]) was 5.89 and 5.93.

Regarding `C1=Cc2nc1c(-c1ccccc1)c1ccc([n-]1)c(-c1ccccc1)c1nc(c(-c3ccccc3)c3ccc([n-]3)c2-c2ccccc2)C=C1.[Zn+2]` [Zn-tpp, Zinc(II) tetraphenylporphyrin, reference compound], the “antimicrobial activity (survival rate of L. plantarum)” value in data set [4] is given as “no obvious antimicrobial activity”. Besides, the “wound infection of tomatoes, with light” value in data set [5] is reported as “different magnitudes of wound infection”. In addition, the “H&E staining of tongue sections, with light” value in data set [6] is listed as “large amounts of inflammation infiltration”.

In the case of `O=C(O)c1ccccc1-c1c2cc(Cl)c(=O)c(Cl)c-2oc2c(Cl)c(O)c(Cl)cc12` [TCF-1, Tetrachloro-fluorescein-1], in data set [1], the “Singlet oxygen yield (ΦΔ)” value amounted to 0.06 and the “singlet oxygen quantum yield (ΦΔ)” value is recorded as 0.06. In addition, in data set [2], the kdec stood at 2.44e+08 s⁻¹, the knr was 7.8e+07 s⁻¹, the krad is 1.66e+08 s⁻¹ and the ΦFL is given as 0.680. In addition, in data set [2], the λAbs stood at 515 nm, the λPh turned out to be 655 nm, the λem is recorded as 536 nm and the τfl is 4.09 ns. The compound further yielded a pH0.5 in data set [3] (setting [9]) of 2.79. The “lowering of pH0.5 compared with fluorescein” value in data set [3] came out at 3.30 units. In addition, the pH0.5 in data set [3] (setting [10]) came out at 2.79.

For the compound Dichloro-fluorescein [DCF], in data set [1], the “singlet oxygen quantum yield (ΦΔ)” value is given as 0.04. Moreover, in data set [2], the kdec was 2.31e+08 s⁻¹, the knr turned out to be 7.7e+07 s⁻¹, the krad was found to be 1.54e+08 s⁻¹ and the ΦFL is 0.668. In addition, in data set [2], the λAbs was 502 nm, the λPh was found to be 645 nm, the λem is 529 nm and the τfl worked out at 4.33 ns. This compound had a pH0.5 in data set [3] (setting [9]) of 4.77. Also, in data set [3] (setting [10]), the pH0.5 came out at 4.77.

On to Fluorescein, for which the “singlet oxygen quantum yield (ΦΔ)” value in data set [1] worked out at 0.01. In data set [2], this compound came in with a kdec of 2.18e+08 s⁻¹, a knr of 3.1e+07 s⁻¹, a krad of 1.87e+08 s⁻¹ and a ΦFL of 0.858. Also, in data set [2], the λAbs was 491 nm, the λPh amounted to 638 nm, the λem was determined as 515 nm and the τfl was found to be 4.58 ns. Further, the pH0.5 in data set [3] (setting [9]) is 6.09. Also, in data set [3] (setting [10]), the pH0.5 turned out to be 6.09.

For the compound `O=C(O)c1c(Cl)c(Cl)c(Cl)c(Cl)c1-c1c2cc(Br)c(=O)c(Br)c-2oc2c(Br)c(O)c(Br)cc12` [PB, Tetrabromo-tetrachloro-fluorescein], in data set [1], the “singlet oxygen quantum yield (ΦΔ)” value worked out at 0.26. In data set [2], this compound yielded a kdec of 8e+08 s⁻¹, a knr of 6.64e+08 s⁻¹, a krad of 1.36e+08 s⁻¹ and a ΦFL of 0.170. Further, in data set [2], the λAbs is 539 nm, the λPh is 730 nm, the λem is 560 nm and the τfl came to 1.25 ns. The pH0.5 in data set [3] (setting [9]) was 3.45. The same compound showed a pH0.5 in data set [3] (setting [10]) of 3.45.

Consider `O=C(O)c1ccccc1-c1c2ccc(=O)c(Br)c-2oc2c(Br)c(O)ccc12` [DBF, Dibromo-fluorescein], for which, in data set [1], the “Singlet oxygen yield (ΦΔ)” value is 0.26 and the “singlet oxygen quantum yield (ΦΔ)” value turned out to be 0.19. In data set [2], this compound gave a kdec of 5.03e+08 s⁻¹, a knr of 3.5e+08 s⁻¹, a krad of 1.52e+08 s⁻¹ and a ΦFL of 0.303. In addition, in data set [2], the λAbs is listed as 504 nm, the λPh is given as 685 nm, the λem turned out to be 531 nm and the τfl is reported as 1.99 ns. In data set [3] (setting [9]), this compound displayed a pH0.5 of 4.63. Also, in data set [3] (setting [10]), the pH0.5 is 4.63 and 4.52.

Take `O=C(O)c1c(Cl)c(Cl)c(Cl)c(Cl)c1-c1c2cc(Cl)c(=O)c(Cl)c-2oc2c(Cl)c(O)c(Cl)cc12` [OCF, Octachloro-fluorescein]: in data set [1], the “Singlet oxygen yield (ΦΔ)” value turned out to be 0.11 and the “singlet oxygen quantum yield (ΦΔ)” value is on record as 0.11. In data set [2], the kdec was determined as 2.31e+08 s⁻¹, the knr came out at 9.3e+07 s⁻¹, the krad came out at 1.38e+08 s⁻¹ and the ΦFL is 0.597. Moreover, in data set [2], the λAbs stood at 537 nm, the λPh stood at 676 nm, the λem was 556 nm and the τfl was found to be 4.33 ns. In data set [3] (setting [9]), this compound displayed a pH0.5 of 3.41. Besides, the pH0.5 in data set [3] (setting [10]) is reported as 3.41.

In the case of `CN(C)c1ccc2nc3ccc(=[N+](C)C)cc-3sc2c1` [Methylene Blue], in data set [7], the Inhibition ratio is on record as 4.7 log10.

On to [Ru(bpy)2(dppn)]2+, for which the Inhibition ratio in data set [8] was 5.4 log10.

Consider `C=Cc1c(C)c2cc3nc(c(CC(=O)O)c4[nH]c(cc5nc(cc1[nH]2)C(C)=C5CC)c(C)c4C(=O)O)[C@@H](CCC(=O)O)[C@@H]3C` [Ce 6, reference compound], for which the “wound infection of tomatoes, with light” value in data set [5] is “different magnitudes of wound infection”. In data set [6], the “H&E staining of tongue sections, with light” value is listed as “large amounts of inflammation infiltration”.
